# Legend:
# Type in all cases: in vivo
# [1] = tested on: KKAy mice with spontaneous type 2 diabetes; assay: Fasting blood glucose, blood insulin and insulin sensitivity index in KKAy mice; details: 28th day, 150 mg/kg
# Method: The KKAy mice with spontaneous type 2 diabetes were divided into 5 groups based on the following five indexes: blood glucose reduction percentage within 40 min in an insulin tolerance test, fasting blood glucose, blood TG, blood TC, and weight. […] Animals in the three dosage groups underwent gavage with 500, 1000, and 1500 mg/kg of the traditional Chinese medicine extract composition of the present invention respectively. […] Gavage was performed once a day for 58 consecutive days, and fasting blood glucose and blood insulin level were measured (ELISA method) at the same time when a glucose tolerance test was carried out on the animals in each group on the 28th day of administration, and an insulin sensitivity index (ISI) was calculated, wherein ISI=1/(FBGmg/dl×FBIng/ml).
# [2] = tested on: KKAy mice with spontaneous type 2 diabetes; assay: Glycosylated hemoglobin (HbA1c) level in KKAy mice; details: 48th day, 150 mg/kg
# Method: (§1) The female KKAy mice with spontaneous type 2 diabetes were fed with a diet dedicated for KKAy mice, with 5 mice in each cage. When the mice weighed over 40 g, prediction of a plurality of indexes such as blood glucose, blood lipid, and insulin resistance were performed. Based on fasting blood glucose, blood glucose reduction percentage within 40 min in an insulin tolerance test, blood triglyceride (TG), total cholesterol (TC), and weight, the mice were divided into 5 groups, with 12 mice in each group.
# The KKAy mice with spontaneous type 2 diabetes were divided into 5 groups based on the following five indexes: blood glucose reduction percentage within 40 min in an insulin tolerance test, fasting blood glucose, blood TG, blood TC, and weight. […] Animals in the three dosage groups underwent gavage with 500, 1000, and 1500 mg/kg of the traditional Chinese medicine extract composition of the present invention respectively. The female C57BL/6J mice were used as a normal animal control group (Nor, underwent gavage with a equal volume of water, n=10). Gavage was performed once a day for 58 consecutive days, and blood was collected from the tail tip on the 48th day to measure the glycosylated hemoglobin level.
# [3] = tested on: KKAy mice with spontaneous type 2 diabetes; assay: Serum triglyceride and total cholesterol in KKAy mice; details: 14th day, 150 mg/kg
# Method: as §1
# The KKAy mice with spontaneous type 2 diabetes were divided into 5 groups based on the following five indexes: blood glucose reduction percentage within 40 min in an insulin tolerance test, fasting blood glucose, blood TG, blood TC, and weight. […] The female C57BL/6J mice were used as a normal animal control group (Nor, underwent gavage with a equal volume of water, n=10). Gavage was performed once a day for 58 consecutive days, and at the same time when the animals in each group underwent an insulin tolerance test on the 14th day of administration, blood was collected to measure the serum triglyceride (TG) and total cholesterol (TC) levels.
# [4] = tested on: C57BL/6J mice fed with a high-fat diet; assay: Insulin tolerance test in C57BL/6J mice fed with a high-fat diet; details: 10th day, 150 mg/kg
# Method: The male C57BL/6J mice were fed with a high-fat and high-nutrient diet, with 5 mice in each cage. When the mice weighed over 45 g, prediction of a plurality of indexes such as blood glucose, blood lipid, and insulin resistance were performed. Based on fasting blood glucose, blood glucose reduction percentage within 40 min in an insulin tolerance test, blood TG, blood TC, and weight, the mice were divided into 5 groups, with 12 mice in each group.
# C57BL/6J mice fed a with high-fat diet and weighing more than 45 g were selected for multi-index prediction tests such as blood glucose, blood lipids, and insulin resistance, and were divided into 5 groups based on the following five indexes: blood glucose reduction percentage within 40 min in an insulin tolerance test, fasting blood glucose, blood TG, blood TC, and weight, with 12 mice in each group. […] Male C57BL/6J mice were used as a normal animal control group. Animals in the positive drug group and each test drug group underwent gavage with a corresponding dosage of the test drug each day. The normal control group and model group underwent gavage with an equal volume of water once a day for 30 days. Animals in each group underwent an insulin tolerance test on the 10th day of the administration. On the test day, the animals fasted for 4 hours (free to drink water), blood was collected from the tail tip (0 min), and then regular insulin (0.4 U/kg) was injected subcutaneously.
# [5] = tested on: KKAy mice with spontaneous type 2 diabetes; assay: Blood pressure of KKAy mice (non-invasive sphygmomanometer); details: 53rd day, 150 mg/kg
# Method: The KKAy mice with spontaneous type 2 diabetes were divided into 5 groups based on the following five indexes: blood glucose reduction percentage within 40 min in an insulin tolerance test, fasting blood glucose, blood TG, blood TC, and weight. […] The female C57BL/6J mice were used as a normal animal control group (Nor, underwent gavage with a equal volume of water, n=10). Gavage was performed once a day for 58 consecutive days, and onOn the 53rd day of administration to the animals in each group, the blood pressure was measured by using an intelligent non-invasive sphygmomanometer (BP98A, Beijing Ruanlong Biotechnology Co., Ltd.).
# [6] = tested on: KKAy mice with spontaneous type 2 diabetes; assay: Hyperinsulinemic-euglycemic clamp in KKAy mice; details: after 54th day, SSBG 6.0 mmol/L, IIR 20.0 mU/kg/min, 150 mg/kg
# Method: as §1
# The KKAy mice with spontaneous type 2 diabetes were divided into 5 groups based on the following five indexes: blood glucose reduction percentage within 40 min in an insulin tolerance test, fasting blood glucose, blood TG, blood TC, and weight. […] The female C57BL/6J mice were used as a normal animal control group (Nor, underwent gavage with a equal volume of water, n=10). Gavage was performed once a day for 58 consecutive days, and After the 54th day of administration to the animals in each group, 5-6 mice were randomly selected from different groups to carry out a hyperinsulinemic-euglycemic clamp test each day.
smiles,measurement,setting,value
"CN(C)C(=N)N=C(N)N [Met, metformin]",Blood insulin,[1]; ELISA,36.3 ± 27.6 ng/mL
same,ISI,[1]; ISI=1/(FBGmg/dl×FBIng/ml),0.26 ± 0.16 ×10^−3
same,HbA1c,[2],4.34 ± 0.83 %
same,Serum TC,[3],243.8 ± 44.0 mg/dL
same,Serum TG,[3],253.2 ± 172.6 mg/dL
same,Glu,[4]; 0 min,104.5 ± 7.6 mg/dL
same,Glu,[4]; 40 min,78.3 ± 10.3 mg/dL
same,Glu,[4]; 90 min,87.5 ± 24.6 mg/dL
same,BP,[5],118.7 ± 10.8 mmHG
same,GIR,[6],14.5 ± 0.6 mg/kg · min
